Where a SMILES comes first, the peptide text is derived from it.
Key:
biotinylated Aβ 12-28 = biotinylated Aβ 12-28 (Homo sapiens, UniProt P05067); assay: Binding of biotinylated Aβ 12-28 to CAβBP or EAβBP coated plates (ELISA); settings: biotinylated peptide 200 pM
Description: Biotinylated Aβ1-42, Aβ12-28 and Aβ 25-35 (from SEQ ID NO. 2) were prepared using a LinKit-Biolink kit (ISL, Paignton, UK). ELISA plates were coated with CAβBP (catalase residues 400409) or EAβBD (ERAB residues 99-108) (1 μg ml^−1) in carbonate buffer and unoccupied sites blocked with 5% (w/v) dried milk. Biotinylated peptides (200 pM) were incubated alone, with control peptides or with unlabelled Aβ peptides in PBS (containing 0.1% BSA and 0.05% Tween-20) at 37° C. for 4 hours. After washing to remove unbound material, an alkaline phosphatase polymer-streptavidin conjugate (Sigma, Dorset, UK) was added and incubated at 37° C. for 2 hours. After washing to remove unbound material, p-nitrophenylphosphate substrate was added and absorbance at 405 nm determined. Affinity constants were determined by incubating catalase or CAβBP coated plates with biotinylated peptides (200 pM) plus Aβ peptides over a range of concentrations (0-100 nM) and detection of bound peptides was carried out by ELISA.

biotinylated Aβ 1-42 = biotinylated Aβ 1-42 (Homo sapiens, UniProt P05067); assay: Binding of biotinylated Aβ 1-42 to CAβBP or EAβBP coated plates (ELISA, Scatchard); settings: biotinylated peptide 200 pM
Description: After washing to remove unbound material, an alkaline phosphatase polymer-streptavidin conjugate (Sigma, Dorset, UK) was added and incubated at 37° C. for 2 hours. After washing to remove unbound material, p-nitrophenylphosphate substrate was added and absorbance at 405 nm determined.

[1] = target: T1, catalase EC 1.11.1.6 from human erythrocytes (Homo sapiens, UniProt P04040); assay: Catalase enzyme activity, inhibition by Aβ peptides; type: biochemical; settings: test peptides 2 μM
T1 construct: catalase EC 1.11.1.6 from human erythrocytes (Sigma, Dorset, UK) was used; purchased Sigma, Dorset, UK; host or cells: human erythrocytes
T1 sequence (P04040 2-527 limits assumed): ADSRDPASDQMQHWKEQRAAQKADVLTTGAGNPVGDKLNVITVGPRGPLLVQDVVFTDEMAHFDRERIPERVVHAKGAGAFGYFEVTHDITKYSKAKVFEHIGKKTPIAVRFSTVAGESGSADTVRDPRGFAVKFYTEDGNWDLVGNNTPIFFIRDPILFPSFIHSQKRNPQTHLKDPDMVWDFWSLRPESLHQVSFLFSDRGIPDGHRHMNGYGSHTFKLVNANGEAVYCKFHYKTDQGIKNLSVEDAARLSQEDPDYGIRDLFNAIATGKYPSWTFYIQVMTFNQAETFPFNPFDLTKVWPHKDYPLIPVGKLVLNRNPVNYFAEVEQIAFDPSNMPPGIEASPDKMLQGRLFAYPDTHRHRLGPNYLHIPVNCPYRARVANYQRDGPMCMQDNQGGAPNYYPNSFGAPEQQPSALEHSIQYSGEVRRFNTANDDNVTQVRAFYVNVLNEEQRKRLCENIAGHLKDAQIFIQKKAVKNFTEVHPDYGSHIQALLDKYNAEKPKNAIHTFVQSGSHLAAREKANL
Description: For catalase activity catalase EC 1.11.1.6 from human erythrocytes (Sigma, Dorset, UK) was used for all incubation experiments. Activity of Catalase (5kU I^−1) incubated with test peptides (2 μM) was determined after incubation in 60 mM sodium-potassium phosphate buffer at 37° C. in a total volume of 100 μl. After incubation catalase activity was determined by mixing 50 μl sample with 50 μl substrate (6.5 μmol H2O2 in phosphate buffer) for 60 secs, adding 100 μl of 32.4 mM ammonium molybdate and measurement of absorbance change at 405 nm. Catalase activity was calculated from a standard curve (0-10OkU I^−1) using purified human catalase of known activity (Milton, Biochem. J. 344: 293-296 (1999)).

[2] = tested on: SP2/0-Ag-14 mouse myeloma cells; assay: Cytotoxicity of Aβ peptides, trypan blue dye exclusion; type: cell-based; settings: test peptides 20 μM, 24 hours
Description: SP2/0-Ag-14 mouse myeloma cells were maintained in RPMI 1640 medium containing 10% fetal calf serum at 37° C. in a 5% CO2 humidified atmosphere. For cytotoxicity experiments 2×1 05 cells were plated in 24 well dishes in 1 ml PBS containing 0.1% BSA and test peptides (20 μM) for 24 hours. Cell viability was determined by trypan blue dye exclusion with at least 100 cells counted per well (Milton, Biochem. J. 344: 293-296 (1999)).

cdc2/cyclin B1 = target: T2, cdc2/cyclin B1 (Homo sapiens, UniProt P06493+P14635); assay: cdc2/cyclin B1 phosphorylation of biotinylated histone H1 substrate peptide; type: biochemical
T2 construct: purchased Promega, UK
From the text: (§1) The membrane was washed four times in 2 M NaCl, followed by four times in 2 M NaCl containing 1% (v/v) H3PO4 and finally twice in deionized H2O to remove unbound material.
Since Aβ binds to both the cdc2 and cyclin B1 components of the active enzyme it is possible that Aβ modulates the activity of the kinase.

[3] = target: T3, recombinant p34-cdc2/cyclin B1 (Homo sapiens, UniProt P06493); assay: Phosphorylation of biotinylated Aβ peptides by recombinant p34-cdc2/cyclin B1 (32P incorporation); type: biochemical; settings: 25 μM biotinylated peptide, 10 min at 30° C.
T3 construct: purchased Promega, UK
From the text: as §1

recombinant human cdc2 = recombinant human cdc2 (Homo sapiens, UniProt P06493); assay: Binding of biotinylated Aβ peptides to recombinant human cdc2 coated plates (ELISA); settings: biotinylated peptide 200 pM, 37° C. 4 hours
Description: (§2) After washing to remove unbound material, an alkaline phosphatase polymer-streptavidin conjugate (Sigma, Dorset, UK) was added and incubated at 37° C. for 2 hours.

[4] = target: recombinant human cyclin B1 (Homo sapiens, UniProt P14635); assay: Binding of biotinylated Aβ peptides to cyclin B1 coated plates (ELISA); settings: biotinylated peptide
Description: as §2
Cyclins are co-factors for cdc2 which are required for enzyme activity. These proteins also contain substrate recognition sequences which may play a role in the recruitment of substrate molecules to the active cdc2/cyclin complex. The recombinant cdc2/cyclin enzyme complex used in the above phosphorylation experiments contained cyclin B1. […] Binding assays as described above using cyclin B1 coated plates were carried out.

recombinant human cyclin B1, sequence (P14635 whole entry): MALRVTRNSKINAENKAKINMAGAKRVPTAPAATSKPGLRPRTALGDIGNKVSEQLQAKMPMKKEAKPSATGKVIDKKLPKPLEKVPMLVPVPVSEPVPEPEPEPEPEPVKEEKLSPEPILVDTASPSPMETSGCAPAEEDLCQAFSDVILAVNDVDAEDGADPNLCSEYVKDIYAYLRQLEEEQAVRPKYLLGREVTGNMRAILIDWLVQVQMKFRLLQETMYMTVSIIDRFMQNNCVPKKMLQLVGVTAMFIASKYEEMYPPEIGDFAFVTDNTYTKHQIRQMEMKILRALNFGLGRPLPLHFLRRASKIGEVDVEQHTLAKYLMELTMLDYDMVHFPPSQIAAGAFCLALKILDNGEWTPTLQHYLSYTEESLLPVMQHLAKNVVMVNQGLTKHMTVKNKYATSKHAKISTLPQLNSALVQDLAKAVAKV
biotinylated Aβ 1-42, sequence (P05067 672-713 limits assumed): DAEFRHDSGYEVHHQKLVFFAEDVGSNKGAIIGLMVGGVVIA
T3 sequence (P06493 whole entry): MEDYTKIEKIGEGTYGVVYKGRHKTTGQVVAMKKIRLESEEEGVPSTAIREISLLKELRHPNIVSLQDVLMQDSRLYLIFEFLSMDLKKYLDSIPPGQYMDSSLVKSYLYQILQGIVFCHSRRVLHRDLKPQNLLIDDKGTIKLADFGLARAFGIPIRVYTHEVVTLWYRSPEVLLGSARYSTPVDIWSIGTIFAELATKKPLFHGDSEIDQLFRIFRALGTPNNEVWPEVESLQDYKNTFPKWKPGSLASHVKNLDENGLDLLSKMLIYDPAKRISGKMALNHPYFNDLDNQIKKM
T3 sequence (P14635 whole entry partner): as the sequence (P14635 whole entry) above
recombinant human cdc2, sequence (P06493 whole entry): as the sequence (P06493 whole entry) above
T2 sequence (P06493 whole entry): as above
T2 sequence (P14635 whole entry): as the sequence (P14635 whole entry) above

Row | Compound | binding of biotinylated Aβ 12-28 (biotinylated Aβ 12-28) | binding of biotinylated Aβ 1-42 (biotinylated Aβ 1-42) | block of the inhibition of catalase enzyme activity by Aβ 1-42 [1] | block of the cytotoxicity of Aβ 1-42 [2] | block of the cytotoxicity of Aβ fragments containing residues 17-35 [2] | effect on phosphorylation of the H1 peptide by cdc2/cyclin B1 (cdc2/cyclin B1) | phosphorylation by cdc2 (incorporation of 32P from γ32P-ATP) [3] | binding to human cdc2 (recombinant human cdc2) | binding to cyclin B1 [4]
1 | CC(C)C[C@H](NC(=O)[C@H](CC(N)=O)NC(=O)[C@H](Cc1ccc(O)cc1)NC(=O)[C@@H](NC(=O)[C@@H](N)CCCCN)[C@@H](C)O)C(=O)N[C@@H](CCCCN)C(=O)N[C@@H](CCCCN)C(=O)NCC(=O)N[C@@H](CCC(N)=O)C(=O)N[C@H](C(=O)O)[C@@H](C)O [EAβBP] (H-KTYNLKKGQT-OH; N-terminus and C-terminus assumed) | specifically bound | specifically bound | no effect | able to block | able to block |  |  |  | 
2 | Aβ 25-35: functional neurotoxic domain fragment of Aβ (GSNKGAIIGLM) |  |  |  |  |  | increased | incorporated | bound | bound

Reference: US20040072753A1, “Peptides for use in the treatment of alzheimer's disease” (priority 2000, published 2004)
